Measured values published in patent US10450311B2, “Pesticidally active heterocyclic derivatives with sulphur containing substituents” (Syngenta Participations AG, priority 2014, dated 2019).

Legend:
Type in all cases: in vivo
[1] = test system: Bemisia tabaci (Cotton White Fly); test: Activity against Bemisia tabaci, sprayed cotton leaf discs; details: foliar, 144 h, application rate of 200 ppm, adult white flies on cotton leaf discs, 6 days after incubation
Procedure: Example B1: Activity Against Bemisia tabaci (Cotton White Fly)
Cotton leaf discs were placed on agar in 24-well microtiter plates and sprayed with aqueous test solutions prepared from 10′000 ppm DMSO stock solutions. After drying the leaf discs were infested with adult white flies. The samples were checked for mortality 6 days after incubation. […] A35, A36 and A47. A1. A2, A3, A8, A10, A14 and A12.

[2] = test system: Plutella xylostella (Diamond Back Moth); test: Activity against Plutella xylostella, treated artificial diet; details: 120 h, application rate of 200 ppm, L2 larvae on artificial diet, 5 days after infestation, read-out: effect in at least one of the two categories (mortality or growth inhibition)
Procedure: Example B8: Activity Against Plutella xylostella (Diamond Back Moth)
24-well microtiter plates with artificial diet were treated with aqueous test solutions prepared from 10′000 ppm DMSO stock solutions by pipetting. After drying, the plates were infested with L2 larvae (10 to 15 per well). The samples were assessed for mortality and growth inhibition in comparison to untreated samples 5 days after infestation.

[3] = test system: Euschistus heros (Neotropical Brown Stink Bug); test: Activity against Euschistus heros, sprayed soybean leaf; details: 120 h, application rate of 200 ppm, N-2 nymphs on soybean leaf, 5 days after infestation
Procedure: Example B3: Activity Against Euschistus heros (Neotropical Brown Stink Bug)
Soybean leaf on agar in 24-well microtiter plates were sprayed with aqueous test solutions prepared from 10′000 ppm DMSO stock solutions. After drying the leaf were infested with N-2 nymphs. The samples were assessed for mortality 5 days after infestation.

[4] = test system: Spodoptera littoralis (Egyptian Cotton Leaf Worm); test: Activity against Spodoptera littoralis, sprayed cotton leaf discs; details: foliar, 72 h, application rate of 200 ppm, L1 larvae on cotton leaf discs, 3 days after infestation, read-out: control (at least one of mortality, anti-feedant effect, growth inhibition)
Procedure: Example B9: Activity Against Spodoptera littoralis (Egyptian Cotton Leaf Worm)
Cotton leaf discs were placed on agar in 24-well microtiter plates and sprayed with aqueous test solutions prepared from 10′000 ppm DMSO stock solutions. After drying the leaf discs were infested with five L1 larvae. The samples were assessed for mortality, anti-feedant effect, and growth inhibition in comparison to untreated samples 3 days after infestation. Control of Spodoptera littoralis by a test sample is when at least one of mortality, anti-feedant effect, and growth inhibition is higher than the untreated sample.

[5] = test system: Diabrotica balteata (Corn Root Worm); test: Activity against Diabrotica balteata, sprayed maize sprouts; details: 96 h, application rate of 200 ppm, larvae on maize sprouts, 4 days after infestation
Procedure: Example B2: Activity Against Diabrotica balteata (Corn Root Worm)
Maize sprouts, placed on an agar layer in 24-well microtiter plates were treated with aqueous test solutions prepared from 10′000 ppm DMSO stock solutions by spraying. After drying, the plates were infested with […] (6 to 10 per well). The samples were assessed for mortality 4 days after infestation.

[6] = test system: Spodoptera littoralis (Egyptian Cotton Leaf Worm); test: Activity against Spodoptera littoralis, compound in agar taken up by lettuce; details: 144 h, test rate of 12.5 ppm, lettuce root uptake, 6 days after infestation, read-out: effect in at least one of the three categories (mortality, anti-feedancy, or growth inhibition)
Description: Example B10: Activity Against Spodoptera littoralis (Egyptian Cotton Leaf Worm)
(§1) Test compounds were applied by pipette from 10′000 ppm DMSO stock solutions into 24-well plates and mixed with agar. Lettuce seeds were placed on the agar and the multi well plate was closed by another plate which contains also agar. After 7 days the roots have absorbed the compound and the lettuce has grown into the lid plate. The lettuce leafs were now cut off into the lid plate. Spodoptera eggs were pipetted through a plastic stencil on a humid gel blotting paper and the plate closed with it. The samples were assessed for mortality, anti-feedant effect and growth inhibition in comparison to untreated samples 6 days after infestation.

[7] = test system: Spodoptera littoralis (Egyptian Cotton Leaf Worm); test: Activity against Spodoptera littoralis, systemic activity; details: 144 h, test rate of 12.5 ppm, in agar, lettuce root uptake, 6 days after infestation
Description: Example B11: Activity Against Spodoptera littoralis (Egyptian Cotton Leaf Worm), Systemic Activity
as §1, with “mortality” for “mortality, anti-feedant effect and growth inhibition in comparison to untreated samples”

[8] = test system: Myzus persicae (Green Peach Aphid); test: Activity against Myzus persicae, sprayed sunflower leaf discs; details: foliar, 144 h, application rate of 200 ppm, aphid population of mixed ages on sunflower leaf discs, 6 days after infestation
Procedure: Example B5: Activity Against Myzus persicae (Green Peach Aphid)
Sunflower leaf discs were placed on agar in a 24-well microtiter plate and sprayed with aqueous test solutions prepared from 10′000 ppm DMSO stock solutions. After drying, the leaf discs were infested with an aphid population of mixed ages. The samples were assessed for mortality 6 days after infestation.

[9] = test system: Aedes aegypti (Yellow Fever Mosquito); test: whole plant or invertebrate; details: 48 h, test rate of 5 ppm, L2 larvae in 96-well plates, incubation period of 2 days, read-out: effect in at least one of the two categories (mortality or growth inhibition)
Procedure: Example B14: Activity Against Aedes aegypti (Yellow Fever Mosquito)
10 to 15 Aedes larvae (L2) together with a nutrition mixture were placed in 96-well microtiter plates. Test compounds were pipetted into the wells. After an incubation period of 2 days insects were assessed for mortality and growth inhibition.

C=CCn1c(C(F)(F)F)cc2nc(-c3ncc(C(F)(F)F)cc3S(=O)(=O)CC)n(C)c2c1=O [Compound A3, 5-allyl-2-[3-ethylsulfonyl-5-(trifluoromethyl)-2-pyridyl]-3-methyl-6-(trifluoromethyl)imidazo[4,5-c]pyridin-4-one]
≥ 80%: mortality at 200 ppm [1] | percent effect (mortality or growth inhibition) at 200 ppm [2] | mortality at 200 ppm [3] | percent control (mortality, anti-feedant effect or growth inhibition) at 200 ppm [4] | mortality at 200 ppm [5]

CCS(=O)(=O)c1cc(Br)cnc1-c1nc2cc(C(F)(F)F)n(C)c(=O)c2n1C [Compound A21, 2-[5-bromo-3-ethylsulfonyl-2-pyridyl]-3,5-dimethyl-6-(trifluoromethyl)imidazo[4,5-c]pyridin-4-one]
≥ 80%: percent control (mortality, anti-feedancy or growth inhibition) at 12.5 ppm [6] | mortality at 12.5 ppm [7] | percent effect (mortality or growth inhibition) at 200 ppm [2] | mortality at 200 ppm [3] | mortality at 200 ppm [8] | percent control (mortality, anti-feedant effect or growth inhibition) at 200 ppm [4] | mortality at 200 ppm [5]

CCS(=O)(=O)c1cc(-c2ccc(C(F)(F)F)cc2)cnc1-c1nc2cc(C(F)(F)F)n(C)c(=O)c2n1C [Compound A22, 2-[3-ethylsulfonyl-5-[4-(trifluoromethyl)phenyl]-2-pyridyl]-3,5-dimethyl-6-(trifluoromethyl)imidazo[4,5-c]pyridin-4-one]
≥ 80%: percent control (mortality, anti-feedancy or growth inhibition) at 12.5 ppm [6] | mortality at 12.5 ppm [7] | percent effect (mortality or growth inhibition) at 5 ppm [9] | percent effect (mortality or growth inhibition) at 200 ppm [2] | mortality at 200 ppm [3] | mortality at 200 ppm [8] | percent control (mortality, anti-feedant effect or growth inhibition) at 200 ppm [4] | mortality at 200 ppm [5]

CCSc1cc(-n2cc(C(F)(F)F)cn2)cnc1-c1nc2cc(C(F)(F)F)n(C)c(=O)c2n1C [Compound A24, 2-[3-ethylsulfanyl-5-[4-(trifluoromethyl)pyrazol-1-yl]-2-pyridyl]-3,5-dimethyl-6-(trifluoromethyl)imidazo[4,5-c]pyridin-4-one]
≥ 80%: percent control (mortality, anti-feedancy or growth inhibition) at 12.5 ppm [6]

CCSc1cc(-n2ccc(C(F)(F)F)n2)cnc1-c1nc2cc(C(F)(F)F)n(C)c(=O)c2n1C [Compound A26, 2-[3-ethylsulfanyl-5-[3-(trifluoromethyl)pyrazol-1-yl]-2-pyridyl]-3,5-dimethyl-6-(trifluoromethyl)imidazo[4,5-c]pyridin-4-one]
≥ 80%: percent control (mortality, anti-feedant effect or growth inhibition) at 200 ppm [4]

CCS(=O)(=O)c1cc(-n2ccc(C(F)(F)F)n2)cnc1-c1nc2cc(C(F)(F)F)n(C)c(=O)c2n1C [Compound A27]
≥ 80%: percent control (mortality, anti-feedant effect or growth inhibition) at 200 ppm [4]

CCS(=O)(=O)c1cc(-c2cc(F)cc(F)c2)cnc1-c1nc2cc(C(F)(F)F)n(C)c(=O)c2n1C [Compound A28, 2-[5-(3,5-difluorophenyl)-3-ethylsulfonyl-2-pyridyl]-3,5-dimethyl-6-(trifluoromethyl)imidazo[4,5-c]pyridin-4-one]
≥ 80%: percent control (mortality, anti-feedancy or growth inhibition) at 12.5 ppm [6] | mortality at 12.5 ppm [7] | percent effect (mortality or growth inhibition) at 5 ppm [9] | percent effect (mortality or growth inhibition) at 200 ppm [2] | mortality at 200 ppm [3] | percent control (mortality, anti-feedant effect or growth inhibition) at 200 ppm [4] | mortality at 200 ppm [5]

CCS(=O)(=O)c1cc(-c2ccc(C#N)cc2)cnc1-c1nc2cc(C(F)(F)F)n(C)c(=O)c2n1C [Compound A41, 4-[6-[3,5-dimethyl-4-OXO-6-(trifluoromethyl)imidazo[4,5-c]pyridin-2-yl]-5-ethylsulfonyl-3-pyridyl]benzonitrile]
≥ 80%: percent control (mortality, anti-feedancy or growth inhibition) at 12.5 ppm [6] | mortality at 12.5 ppm [7] | percent effect (mortality or growth inhibition) at 5 ppm [9] | percent effect (mortality or growth inhibition) at 200 ppm [2] | mortality at 200 ppm [3] | mortality at 200 ppm [8] | percent control (mortality, anti-feedant effect or growth inhibition) at 200 ppm [4] | mortality at 200 ppm [5]

CCS(=O)(=O)c1cc(-c2cc(C(F)(F)F)ccn2)cnc1-c1nc2cc(C(F)(F)F)n(C)c(=O)c2n1C [Compound A42]
≥ 80%: percent control (mortality, anti-feedancy or growth inhibition) at 12.5 ppm [6] | mortality at 12.5 ppm [7] | percent effect (mortality or growth inhibition) at 5 ppm [9] | percent effect (mortality or growth inhibition) at 200 ppm [2] | mortality at 200 ppm [3] | mortality at 200 ppm [8] | percent control (mortality, anti-feedant effect or growth inhibition) at 200 ppm [4] | mortality at 200 ppm [5]

CCS(=O)(=O)c1cc(-c2ccc(C(F)(F)F)cc2)ccc1-c1nc2cc(C(F)(F)F)n(C)c(=O)c2n1C [Compound A70, 2-[2-ethylsulfonyl-4-[4-(trifluoromethyl)phenyl]phenyl]-3,5-dimethyl-6-(trifluoromethyl)imidazo[4,5-c]pyridin-4-one]
≥ 80%: percent effect (mortality or growth inhibition) at 5 ppm [9] | percent effect (mortality or growth inhibition) at 200 ppm [2] | mortality at 200 ppm [3] | percent control (mortality, anti-feedant effect or growth inhibition) at 200 ppm [4] | mortality at 200 ppm [5]

CCS(=O)(=O)c1cc(-c2ncccn2)ccc1-c1nc2cc(C(F)(F)F)n(C)c(=O)c2n1C [Compound A71, 2-(2-ethylsulfonyl-4-pyrimidin-2-yl-phenyl)-3,5-dimethyl-6-(trifluoromethyl)imidazo[4,5-c]pyridin-4-one]
≥ 80%: percent effect (mortality or growth inhibition) at 200 ppm [2] | mortality at 200 ppm [3] | mortality at 200 ppm [8] | percent control (mortality, anti-feedant effect or growth inhibition) at 200 ppm [4]

CCS(=O)(=O)c1cc(-c2ccc(Cl)cc2)ccc1-c1nc2cc(C(F)(F)F)n(C)c(=O)c2n1C [Compound A72, 2-[4-(4-chlorophenyl)-2-ethylsulfonyl-phenyl]-3,5-dimethyl-6-(trifluoromethyl)imidazo[4,5-c]pyridin-4-one]
≥ 80%: percent effect (mortality or growth inhibition) at 200 ppm [2] | mortality at 200 ppm [3] | percent control (mortality, anti-feedant effect or growth inhibition) at 200 ppm [4] | mortality at 200 ppm [5]

CCS(=O)(=O)c1cc(-c2ccc(C(F)(F)F)cc2)cnc1-c1nc2cc(Br)c(=O)n(C)c2n1C [Compound B3]
≥ 80%: percent effect (mortality or growth inhibition) at 200 ppm [2] | mortality at 200 ppm [3] | mortality at 200 ppm [8] | percent control (mortality, anti-feedant effect or growth inhibition) at 200 ppm [4] | mortality at 200 ppm [5]

CCSc1cc(-c2ccc(C(F)(F)F)cc2)cnc1-c1nc2cc(C(F)(F)F)c(=O)n(C)c2n1C [Compound B5, 2-[3-ethylsulfanyl-5-[4-(trifluoromethyl)phenyl]-2-pyridyl]-3,4-dimethyl-6-(trifluoromethyl)imidazo[4,5-b]pyridin-5-one]
≥ 80%: mortality at 200 ppm [3] | percent control (mortality, anti-feedant effect or growth inhibition) at 200 ppm [4] | mortality at 200 ppm [5]
